Laboratory results reported in ChEMBL document CHEMBL2380232, “Triazole derivatives: a series of Darapladib analogues as orally active Lp-PLA2 inhibitors” (Bioorg Med Chem Lett, 2013).
Active and inactive are the calls of the source. No cut-off for these calls is given here.

Assays:
Oryctolagus cuniculus [1] = organism: Oryctolagus cuniculus; conditions: Plasma, 10 nM
Description: Inhibition of Lp-PLA2 in rabbit plasma using [3H]PAF as substrate at 10 nM incubated for 5 mins prior to substrate addition measured after 10 mins by liquid scintillation counting analysis relative to control

Mus musculus = organism: Mus musculus; conditions: C57, 50 mg/kg
Description: In vivo inhibition of Lp-PLA2 in C57 mouse serum using 2-thio-PAF as substrate at 50 mg/kg, po measured over 24 hrs

Oryctolagus cuniculus [2] = organism: Oryctolagus cuniculus; conditions: Plasma, 100 nM
Description: Inhibition of Lp-PLA2 in rabbit plasma using [3H]PAF as substrate at 100 nM incubated for 5 mins prior to substrate addition measured after 10 mins by liquid scintillation counting analysis relative to control

inhibition (Oryctolagus cuniculus [1]) | inhibition (Oryctolagus cuniculus [2]) | SMILES | inhibition (Mus musculus)
33% | – | O=c1nc(SCc2ccc(F)cc2)n(Cc2nnc(CNCCN3CCCCC3)n2Cc2ccc(-c3ccc(C(F)(F)F)cc3)cc2)c2c1CCC2 | –
75% | 97% | CN(CCN1CCCCC1)Cc1nnc(Cn2c(SCc3ccc(F)cc3)nc(=O)c3c2CCC3)n1Cc1ccc(-c2ccc(C(F)(F)F)cc2)cc1 | Active
76% | 96% | O=c1nc(SCc2ccc(F)cc2)n(Cc2nnc(CCCN3CCCCC3)n2Cc2ccc(-c3ccc(C(F)(F)F)cc3)cc2)c2c1CCC2 | –
76% | 97% | CN(CCN1CCCC1)Cc1nnc(Cn2c(SCc3ccc(F)cc3)nc(=O)c3c2CCC3)n1Cc1ccc(-c2ccc(C(F)(F)F)cc2)cc1 | –
75% | 97% | O=c1nc(SCc2ccc(F)cc2)n(Cc2nnc(CCCN3CCCC3)n2Cc2ccc(-c3ccc(C(F)(F)F)cc3)cc2)c2c1CCC2 | –
32% | – | O=c1nc(SCc2ccc(F)cc2)n(Cc2nnc(CNCCN3CCOCC3)n2Cc2ccc(-c3ccc(C(F)(F)F)cc3)cc2)c2c1CCC2 | –
73% | – | CCN(CC)CCCc1nnc(Cn2c(SCc3ccc(F)cc3)nc(=O)c3c2CCC3)n1Cc1ccc(-c2ccc(C(F)(F)F)cc2)cc1 | inactive
55% | – | O=c1nc(SCc2ccc(F)cc2)n(Cc2nnc(CNCCN3CCCC3)n2Cc2ccc(-c3ccc(C(F)(F)F)cc3)cc2)c2c1CCC2 | –
46% | – | CN(C)[C@H]1CCN(Cc2nnc(Cn3c(SCc4ccc(F)cc4)nc(=O)c4c3CCC4)n2Cc2ccc(-c3ccc(C(F)(F)F)cc3)cc2)C1 | –
54% | 92% | CN(CCN1CCCCC1)Cc1cnc(Cn2c(SCc3ccc(F)cc3)nc(=O)c3c2CCC3)n1Cc1ccc(-c2ccc(C(F)(F)F)cc2)cc1 | –

The next lines start with the compound.

SMILES | inhibition (Oryctolagus cuniculus [1]) | inhibition (Oryctolagus cuniculus [2]) | inhibition (Mus musculus)
CN(C)[C@@H]1CCN(Cc2nnc(Cn3c(SCc4ccc(F)cc4)nc(=O)c4c3CCC4)n2Cc2ccc(-c3ccc(C(F)(F)F)cc3)cc2)C1 | 54% | – | –
CN(C)CCN(C)Cc1nnc(Cn2c(SCc3ccc(F)cc3)nc(=O)c3c2CCC3)n1Cc1ccc(-c2ccc(C(F)(F)F)cc2)cc1 | 77% | – | –
CCN(CC)CCN(C)Cc1nnc(Cn2c(SCc3ccc(F)cc3)nc(=O)c3c2CCC3)n1Cc1ccc(-c2ccc(C(F)(F)F)cc2)cc1 | 72% | – | Active
CC(c1nnc(Cn2c(SCc3ccc(F)cc3)nc(=O)c3c2CCC3)n1Cc1ccc(-c2ccc(C(F)(F)F)cc2)cc1)N(C)CCN(C)C (configuration not stated) | 71% | – | –
CCN(CC)CCNCc1nnc(Cn2c(SCc3ccc(F)cc3)nc(=O)c3c2CCC3)n1Cc1ccc(-c2ccc(C(F)(F)F)cc2)cc1 | 35% | – | –
CCN(CC)CCN(Cc1ccc(-c2ccc(C(F)(F)F)cc2)cc1)C(=O)Cn1c(SCc2ccc(F)cc2)nc(=O)c2c1CCC2 | 82% | 99% | –
CCN(CC)CCCCc1nnc(Cn2c(SCc3ccc(F)cc3)nc(=O)c3c2CCC3)n1Cc1ccc(-c2ccc(C(F)(F)F)cc2)cc1 | 74% | 95% | inactive
CCN(CC)CCN(C)Cc1cnc(Cn2c(SCc3ccc(F)cc3)nc(=O)c3c2CCC3)n1Cc1ccc(-c2ccc(C(F)(F)F)cc2)cc1 | 54% | 89% | –
CC(c1nnc(Cn2c(SCc3ccc(F)cc3)nc(=O)c3c2CCC3)n1Cc1ccc(-c2ccc(C(F)(F)F)cc2)cc1)N(C)CCCN(C)C (configuration not stated) | 71% | – | –
CN(C)CCCN(C)Cc1nnc(Cn2c(SCc3ccc(F)cc3)nc(=O)c3c2CCC3)n1Cc1ccc(-c2ccc(C(F)(F)F)cc2)cc1 | 73% | – | –
CN(Cc1ccccn1)Cc1nnc(Cn2c(SCc3ccc(F)cc3)nc(=O)c3c2CCC3)n1Cc1ccc(-c2ccc(C(F)(F)F)cc2)cc1 | 36% | – | –
CCN(CC)CCN(Cc1nnc(Cn2c(SCc3ccc(F)cc3)nc(=O)c3c2CCC3)n1Cc1ccc(-c2ccc(C(F)(F)F)cc2)cc1)C(C)C | 33% | 95% | –
CCN(CC)CCN(C)C(C)c1nnc(Cn2c(SCc3ccc(F)cc3)nc(=O)c3c2CCC3)n1Cc1ccc(-c2ccc(C(F)(F)F)cc2)cc1 (configuration not stated) | 76% | – | Active
COCCNCc1nnc(Cn2c(SCc3ccc(F)cc3)nc(=O)c3c2CCC3)n1Cc1ccc(-c2ccc(C(F)(F)F)cc2)cc1 | 13% | – | –
CCN(CCN(C)C)Cc1nnc(Cn2c(SCc3ccc(F)cc3)nc(=O)c3c2CCC3)n1Cc1ccc(-c2ccc(C(F)(F)F)cc2)cc1 | 75% | – | –
CN(CC(=O)O)Cc1nnc(Cn2c(SCc3ccc(F)cc3)nc(=O)c3c2CCC3)n1Cc1ccc(-c2ccc(C(F)(F)F)cc2)cc1 | 5% | 74% | –
CC(C)N(CCNCc1nnc(Cn2c(SCc3ccc(F)cc3)nc(=O)c3c2CCC3)n1Cc1ccc(-c2ccc(C(F)(F)F)cc2)cc1)C(C)C | 41% | – | –
